Measurements taken from patent US5246926A, “Cephalosporin derivatives” (Beecham Group p.l.c., priority 1989, dated 1993).
In brackets after ≈: the same amount, converted by molar mass.

Experiments:
E. coli (NCTC 10418) = test: In vitro antibacterial activity, M.I.C. against E. coli; assay type: cell-based; details: Escherichia coli, NCTC10418
S. aureus (Oxford) = test: In vitro antibacterial activity, M.I.C. against S. aureus; assay type: cell-based; details: Staphylococcus aureus

MIC (E. coli (NCTC 10418)) [µg/mL] | MIC (S. aureus (Oxford)) [µg/mL] | Structure (SMILES)
< 0.03 | 1 | CO/N=C(\C(=O)N[C@@H]1C(=O)N2C(C(=O)O)=C(C3CCC(=O)O3)CS[C@H]12)c1csc(N)n1 (mixture of isomers) [Example 3, Sodium (6R,7R)-7-[2-(2-Aminothiazol-4-yl)-2-(Z)-methoxyiminoacetamido]-3-[(5RS)-2-oxotetrahydrofuran-5-yl]ceph-3-em-4-carboxylate]
32 (≈ 68.5 µM) | 4 (≈ 8.56 µM) | CO/N=C(\C(=O)N[C@@H]1C(=O)N2C(C(=O)O)=C(C3COC(=O)C3)CS[C@H]12)c1csc(N)n1 (stereo partly shown) [Example 8]
< 0.03 | 0.25 | Nc1nc(/C(=N/O)C(=O)N[C@@H]2C(=O)N3C(C(=O)O)=C(C4CCC(=O)O4)CS[C@H]23)cs1 (mixture of isomers) [Example 5, (6R,7R)-7-[2-(2-Aminothiazol-4-yl)-2-(Z)-hydroxyiminoacetamido]-3-[(5RS)-2-oxotetrahydrofuran-5-yl)ceph-3-em-4-carboxylic acid]
0.12 (≈ 0.235 µM) | 8 (≈ 15.6 µM) | Nc1nc(/C(=N/OCC(=O)O)C(=O)N[C@@H]2C(=O)N3C(C(=O)O)=C(C4CCC(=O)O4)CS[C@H]23)cs1 (stereo partly shown) [Example 10]

Structure (SMILES) | MIC (E. coli (NCTC 10418)) [µg/mL] | MIC (S. aureus (Oxford)) [µg/mL]
CO/N=C(\C(=O)N[C@@H]1C(=O)N2C(C(=O)[O-])=C(C3CCOC3=O)CS[C@H]12)c1csc(N)n1.[Na+] (mixture of isomers) [Example 15, Sodium (6R,7R)-7-[2-(2-aminothiazol-4-yl)-2-(Z)-methoxyiminoacetamido]-3-[(3RS)-2-oxotetrahydrofuran-3-yl]ceph-3-em-4-carboxylate] | 0.25 | 4
